This is an account of results in US12441733B2, “Substituted 2,4-dioxotetrahydropyrimidines as intermediates in the synthesis of bruton's tyrosine kinase inhibitors” (Novartis AG, priority 2018, dated 2025).

Format in all cases: cell-based
Assay [1] relates to TMD8 cells. The experiment in a line: Resazurin cell viability (proliferation) assay in TMD8 DLBCL cells. Particulars: TMD8 cells (BTK dependent), 72 h, 50% growth inhibition vs vehicle, read-out: TMD8 Prol GI50. Summed up: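 TMD8 cells were seeded at 1×10^4 per well and treated 3 h later with compound, in an 8-point 1:4 dilution series starting at 1 μM, or DMSO, for 72 h at 37° C. Resazurin was added at 13 μg/ml final for the last 2 h, and fluorescence was read at ex 530/em 600 nm. GI50 versus vehicle was derived by curve fitting from triplicates.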

Assay [2] addresses T1, BTK-GFP (Homo sapiens, UniProt Q06187+Q96SW2).
T1 construct: expressed in transfected cells; host or cells: HEK293A (Invitrogen R70507), lentiviral transduction with pLenti6-BTK-GFP-Ires-RFP, blasticidin selection
The experiment in a line: BTK-GFP protein abundance flow cytometry assay in HEK293A cells. Particulars: HEK293A BTK-GFP-iresRFP cells, 24 h; for DC50: GFP signal by flow cytometry, concentration at which 50% maximal degradation was observed; for BTK deg Amax: % protein remaining at the concentration at which maximum degradation is seen. Summed up:
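HEK293A cells stably expressing bicistronic BTK-GFP-IRES-RFP (C-terminal GFP tag) via lentiviral vector. Degradation read by flow cytometry as loss of GFP signal after degrader treatment. DC50 is concentration giving 50% maximal degradation; Amax is % protein remaining at maximal degradation.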
On the technique in general: Flow cytometry measures light scatter and fluorescence of single cells or particles in a stream.

In assay [3] the test system is OCI-LY3 cells. The experiment in a line: Resazurin cell viability (proliferation) assay in OCI-LY3 DLBCL cells. Particulars: OCI-LY3 cells (BTK independent), 72 h, 50% growth inhibition vs vehicle, read-out: OCI-LY3 Prol GI50. Put shortly:
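Cells were seeded at 1×10^4 per well and dosed 3 h later: 8-point 1:4 dilutions from 10 μM (OCI-LY3), in triplicate, 72 h at 37 °C. Resazurin (13 μg/ml final) was added for the last 2 h and fluorescence read at 530/600 nm. GI50 is relative to DMSO vehicle, typically from ≥2 independent experiments.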
(In general: Alamar Blue is a resazurin reagent that responds to reducing activity.)

Read-outs that look alike come from different tables or passages of the source.

The GI50 is the concentration that inhibits growth by half. Usually DC50 stands for the concentration giving 50% degradation.

T1 sequence (Q06187 whole entry): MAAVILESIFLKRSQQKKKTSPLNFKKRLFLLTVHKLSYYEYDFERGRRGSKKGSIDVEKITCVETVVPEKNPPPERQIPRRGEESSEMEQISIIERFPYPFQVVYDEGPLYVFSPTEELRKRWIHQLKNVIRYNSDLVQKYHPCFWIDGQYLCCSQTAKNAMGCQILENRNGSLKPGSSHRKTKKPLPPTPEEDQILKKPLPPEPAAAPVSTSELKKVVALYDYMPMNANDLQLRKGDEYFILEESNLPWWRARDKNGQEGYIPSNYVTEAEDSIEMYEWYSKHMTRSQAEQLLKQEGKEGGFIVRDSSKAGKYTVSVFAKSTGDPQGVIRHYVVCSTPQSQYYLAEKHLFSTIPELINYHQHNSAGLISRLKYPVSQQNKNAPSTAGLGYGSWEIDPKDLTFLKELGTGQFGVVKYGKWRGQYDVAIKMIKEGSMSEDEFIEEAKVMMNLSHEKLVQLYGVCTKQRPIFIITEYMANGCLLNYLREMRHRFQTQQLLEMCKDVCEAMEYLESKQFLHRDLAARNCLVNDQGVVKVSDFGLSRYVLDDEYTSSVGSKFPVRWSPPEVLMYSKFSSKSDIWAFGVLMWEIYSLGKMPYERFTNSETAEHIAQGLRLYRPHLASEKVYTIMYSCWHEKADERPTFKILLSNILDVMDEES
T1 sequence (Q96SW2 whole entry): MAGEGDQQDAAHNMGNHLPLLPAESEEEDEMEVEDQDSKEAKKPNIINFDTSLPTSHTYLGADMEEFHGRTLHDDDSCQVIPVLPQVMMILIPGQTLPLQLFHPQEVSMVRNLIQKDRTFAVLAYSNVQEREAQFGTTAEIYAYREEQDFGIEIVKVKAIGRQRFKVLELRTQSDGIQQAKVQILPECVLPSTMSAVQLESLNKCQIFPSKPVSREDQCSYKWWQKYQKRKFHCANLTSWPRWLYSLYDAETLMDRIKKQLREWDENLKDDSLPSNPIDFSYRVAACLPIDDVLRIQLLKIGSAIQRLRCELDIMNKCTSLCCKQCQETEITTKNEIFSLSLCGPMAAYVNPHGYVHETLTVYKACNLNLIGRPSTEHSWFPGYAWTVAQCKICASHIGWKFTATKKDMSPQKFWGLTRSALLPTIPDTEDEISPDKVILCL
T1 sequence (Q16531 whole entry partner): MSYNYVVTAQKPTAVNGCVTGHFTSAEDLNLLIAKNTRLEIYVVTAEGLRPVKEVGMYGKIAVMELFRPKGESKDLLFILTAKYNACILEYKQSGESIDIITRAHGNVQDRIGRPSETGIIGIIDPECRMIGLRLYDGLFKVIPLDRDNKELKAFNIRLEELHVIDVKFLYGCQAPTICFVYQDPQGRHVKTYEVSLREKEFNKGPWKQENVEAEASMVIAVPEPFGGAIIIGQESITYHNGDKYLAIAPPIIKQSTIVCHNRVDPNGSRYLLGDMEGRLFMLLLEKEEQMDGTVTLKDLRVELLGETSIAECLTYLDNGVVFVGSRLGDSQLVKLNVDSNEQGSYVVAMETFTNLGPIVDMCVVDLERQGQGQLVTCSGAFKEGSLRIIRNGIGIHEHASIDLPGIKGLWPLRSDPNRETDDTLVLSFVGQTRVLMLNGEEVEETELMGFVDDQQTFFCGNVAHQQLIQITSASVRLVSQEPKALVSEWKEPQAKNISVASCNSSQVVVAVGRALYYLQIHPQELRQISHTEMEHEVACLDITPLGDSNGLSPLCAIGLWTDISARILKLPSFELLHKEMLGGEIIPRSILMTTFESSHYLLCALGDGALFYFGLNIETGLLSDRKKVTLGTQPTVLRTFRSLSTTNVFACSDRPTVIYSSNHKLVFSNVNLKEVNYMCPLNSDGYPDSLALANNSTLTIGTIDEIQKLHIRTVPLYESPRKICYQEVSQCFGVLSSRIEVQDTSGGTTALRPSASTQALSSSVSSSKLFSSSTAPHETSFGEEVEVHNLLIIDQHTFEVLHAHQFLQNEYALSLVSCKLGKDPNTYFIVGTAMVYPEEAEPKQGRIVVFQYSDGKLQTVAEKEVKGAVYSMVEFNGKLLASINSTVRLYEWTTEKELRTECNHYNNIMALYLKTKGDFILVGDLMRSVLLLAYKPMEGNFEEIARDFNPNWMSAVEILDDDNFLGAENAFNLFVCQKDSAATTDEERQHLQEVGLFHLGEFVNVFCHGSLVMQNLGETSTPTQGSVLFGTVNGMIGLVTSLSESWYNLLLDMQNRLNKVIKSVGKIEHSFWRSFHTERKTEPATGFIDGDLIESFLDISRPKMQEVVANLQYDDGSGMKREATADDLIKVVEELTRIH

For the compound `COc1ccc(C(=O)NCCN2CCC3(CC2)CCN(Cc2ccc(-c4cc5c(-c6cc(F)cc(NC(=O)c7ccc(C(C)(C)O)cc7F)c6C)ncnc5[nH]4)cc2)C3)cc1N1CCC(=O)NC1=O` [Compound 35, N-(3-(6-(4-((8-(2-(3-(2,4-Dioxotetrahydropyrimidin-1(2H)-yl)-4-methoxybenzamido)ethyl)-2,8-diazaspiro[4.5]decan-2-yl)methyl)phenyl)-7H-pyrrolo[2,3-d]pyrimidin-4-yl)-5-fluoro-2-methylphenyl)-2-fluoro-4-(2-hydroxypropan-2-yl)benzamide], in assay [1] (Homo sapiens), the GI50 was 3.46 nM. Besides, in assay [2], it took 61.1 nM to reach half-maximal degradation (DC50) and the “BTK deg Amax” value was found to be 7.6%. Besides, in assay [3] (Homo sapiens), the 50% growth inhibitory concentration (GI50) is 9160 nM.
With `COc1ccc(C(=O)N2CCN(CCNCCCCOc3ccc(-c4cc5c(-c6cc(F)cc(NC(=O)c7ccc(C(C)(C)O)cc7F)c6C)ncnc5[nH]4)cc3)CC2)cc1N1CCC(=O)NC1=O` [Compound 36, N-(3-(6-(4-(4-((2-(4-(3-(2,4-dioxotetrahydropyrimidin-1(2H)-yl)-4-methoxybenzoyl)piperazin-1-yl)ethyl)amino)butoxyl)phenyl)-7H-pyrrolo[2,3-d]pyrimidin-4-yl)-5-fluoro-2-methylphenyl)-2-fluoro-4-(2-hydroxypropan-2-yl)benzamide], the GI50 in assay [1] (Homo sapiens) turned out to be 2.94 nM. In assay [2], half-maximal degradation (DC50) was put at 37 nM and the “BTK deg Amax” value was 2.4%. Moreover, the concentration for 50% growth inhibition (GI50) in assay [3] (Homo sapiens) was more than 10000 nM.
For `Cc1c(NC(=O)c2ccc(C(C)(C)O)cc2F)cc(F)cc1-c1ncnc2[nH]c(-c3ccc(CN4CCC5(CC4)CN(CCNC(=O)c4ccc(Cl)c(N6CCC(=O)NC6=O)c4)CCO5)cc3)cc12` [Compound 37, N-(3-(6-(4-((4-(2-(4-chloro-3-(2,4-dioxotetrahydropyrimidin-1(2H)-yl)benzamido)ethyl)-1-oxa-4,9-diazaspiro[5.5]undecan-9-yl)methyl)phenyl)-7H-pyrrolo[2,3-d]pyrimidin-4-yl)-5-fluoro-2-methylphenyl)-2-fluoro-4-(2-hydroxypropan-2-yl)benzamide] the same measures were 1.93 nM, 11.3 nM, 6.5% and 4220 nM.
For `COc1ccc(C(=O)N2CCC(CCN3CCC(Oc4ccc(-c5cc6c(-c7cc(F)cc(NC(=O)c8ccc(C(C)(C)O)cc8F)c7C)ncnc6[nH]5)cc4)CC3)CC2)cc1N1CCC(=O)NC1=O` [Compound 38, N-(3-(6-(4-((1-(2-(1-(3-(2,4-dioxotetrahydropyrimidin-1(2H)-yl)-4-methoxybenzoyl)piperidin-4-yl)ethyl)piperidin-4-yl)oxy)phenyl)-7H-pyrrolo[2,3-d]pyrimidin-4-yl)-5-fluoro-2-methylphenyl)-2-fluoro-4-(2-hydroxypropan-2-yl)benzamide] the same measures were 0.51 nM, 0.9 nM, 4.1% and 4440 nM.
With `COc1ccc(C(=O)N2CCC(O[C@H]3CC[C@@H](OCc4ccc(-c5cc6c(-c7cc(F)cc(NC(=O)c8ccc(C(C)(C)O)cc8F)c7C)ncnc6[nH]5)cc4)CC3)CC2)cc1N1CCC(=O)NC1=O` [Compound 41, N-(3-(6-(4-((((1s,4s)-4-((1-(3-(2,4-dioxotetrahydropyrimidin-1(2H)-yl)-4-methoxybenzoyl)piperidin-4-yl)oxy)cyclohexyl)oxy)methyl)phenyl)-7H-pyrrolo[2,3-d]pyrimidin-4-yl)-5-fluoro-2-methylphenyl)-2-fluoro-4-(2-hydroxypropan-2-yl)benzamide], the concentration for 50% growth inhibition (GI50) in assay [1] is 17.5 nM. In addition, in assay [2], the DC50 worked out at 12.4 nM and the “BTK deg Amax” value stood at 4.4%. Moreover, the GI50 in assay [3] is more than 10000 nM.
